Laboratory results reported in patent US20240391931A1 (Bristol-Myers Squibb Company, priority 2021, published 2024).

Legend:
[1] = biological target: T1, HER2 wildtype (WT) protein (Homo sapiens, UniProt P04626); test: HER2 signaling (pHER2 Tyr1248/total HER2 MSD) in BT474 cells; type: cell-based; details: 1.5 hr compound, 1% FBS
T1 construct: BT474 and N87 cell lines which endogenously overexpress the HER2 wildtype (WT) protein; endogenous in cells; host or cells: BT474, N87
Method in brief: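 BT474, N87 (HER2 WT) and NCI-H1781 (HER2 G776delinsVC) cells were treated for 1.5 h at 37° C in 1% FBS medium with compound at 0.0005–1.1 μM. pHER2 Tyr1248 was measured by MSD on whole-cell lysates and normalized to total HER2 as % DMSO. EC50 came from a variable-slope sigmoidal fit.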

[2] = biological target: EGFR (Homo sapiens, UniProt P00533); test: EGFR signaling (pEGFR Tyr1068/total EGFR MSD) in A431 cells; type: cell-based; parameters: endogenous in cells; host or cells: A431, N87; details: for EC50: A431 cells, read-out: A431 pEGFR EC50; for Selectivity A431 EC50/BT474 EC50: ratio A431 pEGFR EC50 to BT474 pHER2 EC50; for Selectivity A431 EC50/HEKYVMA EC50: ratio A431 pEGFR EC50 to HEK YVMA pHER2 EC50
Chain of EGFR (P00533 25-1210): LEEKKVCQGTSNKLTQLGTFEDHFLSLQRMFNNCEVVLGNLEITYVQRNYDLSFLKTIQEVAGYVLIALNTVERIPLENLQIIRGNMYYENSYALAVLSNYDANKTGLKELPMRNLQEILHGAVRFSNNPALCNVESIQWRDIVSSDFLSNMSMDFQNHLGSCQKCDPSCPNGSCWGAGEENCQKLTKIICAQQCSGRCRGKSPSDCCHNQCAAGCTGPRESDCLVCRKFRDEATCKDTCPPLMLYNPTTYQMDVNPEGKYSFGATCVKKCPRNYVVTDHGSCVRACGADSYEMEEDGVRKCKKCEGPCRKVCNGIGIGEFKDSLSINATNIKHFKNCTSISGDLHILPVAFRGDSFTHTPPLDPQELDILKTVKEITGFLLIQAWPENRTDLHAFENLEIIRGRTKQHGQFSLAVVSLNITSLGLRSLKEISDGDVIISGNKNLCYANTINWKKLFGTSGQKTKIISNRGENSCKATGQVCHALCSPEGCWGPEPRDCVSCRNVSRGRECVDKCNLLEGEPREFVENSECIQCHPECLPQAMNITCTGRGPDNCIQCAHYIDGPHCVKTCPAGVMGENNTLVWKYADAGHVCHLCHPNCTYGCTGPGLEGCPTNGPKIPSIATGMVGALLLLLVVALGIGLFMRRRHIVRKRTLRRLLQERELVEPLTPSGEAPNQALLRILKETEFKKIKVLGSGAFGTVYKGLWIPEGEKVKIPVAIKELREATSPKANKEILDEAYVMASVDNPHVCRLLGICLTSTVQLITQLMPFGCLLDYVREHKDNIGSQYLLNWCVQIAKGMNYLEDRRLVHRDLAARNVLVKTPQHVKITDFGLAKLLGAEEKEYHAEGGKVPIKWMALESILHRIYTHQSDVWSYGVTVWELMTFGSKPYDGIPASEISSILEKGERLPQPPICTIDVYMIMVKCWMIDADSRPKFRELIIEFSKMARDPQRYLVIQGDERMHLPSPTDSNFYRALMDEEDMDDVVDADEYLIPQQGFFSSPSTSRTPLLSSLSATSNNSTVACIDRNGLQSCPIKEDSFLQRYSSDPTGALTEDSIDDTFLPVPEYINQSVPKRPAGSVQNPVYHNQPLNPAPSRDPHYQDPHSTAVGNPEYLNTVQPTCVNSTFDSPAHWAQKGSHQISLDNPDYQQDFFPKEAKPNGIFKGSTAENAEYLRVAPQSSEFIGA
Method in brief: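 EC50 was fitted with variable Hill slope from MSD pTyr1068/total EGFR ratios, expressed as % DMSO control. A431 cells were starved overnight, then exposed 1.5 h to eight concentrations from 10 to 0.005 μM in 1% FBS before a 10-min 100 ng/mL EGF pulse.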

T1 sequence (P04626 23-1255): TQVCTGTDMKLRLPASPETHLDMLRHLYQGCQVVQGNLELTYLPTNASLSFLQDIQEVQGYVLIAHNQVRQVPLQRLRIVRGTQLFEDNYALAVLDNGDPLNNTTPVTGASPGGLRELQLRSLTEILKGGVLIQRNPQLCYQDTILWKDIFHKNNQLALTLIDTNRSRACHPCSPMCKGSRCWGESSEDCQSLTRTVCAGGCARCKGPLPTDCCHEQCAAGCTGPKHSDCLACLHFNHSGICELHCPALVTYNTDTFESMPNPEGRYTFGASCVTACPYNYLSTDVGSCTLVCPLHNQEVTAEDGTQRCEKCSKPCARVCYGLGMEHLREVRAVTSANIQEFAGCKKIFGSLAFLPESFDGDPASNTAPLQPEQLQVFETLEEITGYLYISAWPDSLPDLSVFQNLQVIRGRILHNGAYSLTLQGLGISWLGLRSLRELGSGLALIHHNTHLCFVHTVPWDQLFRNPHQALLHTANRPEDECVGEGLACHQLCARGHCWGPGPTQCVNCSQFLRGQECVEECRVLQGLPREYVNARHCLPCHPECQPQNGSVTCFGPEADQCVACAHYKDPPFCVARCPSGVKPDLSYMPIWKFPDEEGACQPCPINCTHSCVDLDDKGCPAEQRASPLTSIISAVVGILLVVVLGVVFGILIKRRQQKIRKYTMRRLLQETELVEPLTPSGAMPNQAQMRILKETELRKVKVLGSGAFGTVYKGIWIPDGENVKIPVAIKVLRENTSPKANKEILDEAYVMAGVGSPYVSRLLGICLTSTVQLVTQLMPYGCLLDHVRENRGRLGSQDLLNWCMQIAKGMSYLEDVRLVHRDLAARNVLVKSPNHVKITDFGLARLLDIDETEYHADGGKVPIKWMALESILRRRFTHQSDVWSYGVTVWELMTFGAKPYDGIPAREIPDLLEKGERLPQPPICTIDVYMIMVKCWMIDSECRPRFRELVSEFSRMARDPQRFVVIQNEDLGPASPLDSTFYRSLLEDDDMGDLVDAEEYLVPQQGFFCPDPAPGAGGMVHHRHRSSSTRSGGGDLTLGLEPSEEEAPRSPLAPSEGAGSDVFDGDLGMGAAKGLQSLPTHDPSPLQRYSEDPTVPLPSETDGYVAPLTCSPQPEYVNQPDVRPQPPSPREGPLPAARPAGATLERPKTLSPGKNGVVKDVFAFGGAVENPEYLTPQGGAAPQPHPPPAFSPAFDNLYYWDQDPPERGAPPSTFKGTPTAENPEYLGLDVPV

EC50 [1] | EC50 [2] | Selectivity A431 EC50/BT474 EC50 [2] | Selectivity A431 EC50/HEKYVMA EC50 [2] | Compound
< 100 nM | 100 to 1000 nM | C (C: ≥ 10 and < 20) | C (C: ≥ 10 and < 20) | COc1ccc(Oc2ccc(Nc3ncnc4sc5c(c34)C(C)CN(C(=O)/C=C/CN(C)C)C5)cc2C)cn1 (centres unmarked) [Compound 152, (E)-4-(dimethylamino)-1-(4-((4-((6-methoxypyridin-3-yl)oxy)-3-methylphenyl)amino)-5-methyl-5,8-dihydropyrido[4′,3′:4,5]thieno[2,3-d]pyrimidin-7(6H)-yl)but-2-en-1-one]
< 100 nM | 100 to 1000 nM | B (B: ≥ 20 and < 100) | C (C: ≥ 10 and < 20) | Cc1ccc(Oc2ccc(Nc3ncnc4sc5c(c34)CN(C(=O)/C=C/CN(C)C)C5C)cc2C)cn1 (centres unmarked) [Compound 153, (E)-4-(dimethylamino)-1-(7-methyl-4-((3-methyl-4-((6-methylpyridin-3-yl)oxy)phenyl)amino)-5,7-dihydro-6H-pyrrolo[3′,4′:4,5]thieno[2,3-d]pyrimidin-6-yl)but-2-en-1-one]
< 100 nM | 100 to 1000 nM | B (B: ≥ 20 and < 100) | E (E: >1 and < 5) | Cc1ccc(Oc2ccc(Nc3ncnc4sc5c(c34)CCN(C(=O)/C=C/CN(C)C)CC5)cc2Cl)cn1 [Compound 167, (E)-1-(4-((3-Chloro-4-((6-methylpyridin-3-yl)oxy)phenyl)amino)-8,9-dihydro-5H-pyrimido[5′,4′:4,5]thieno[2,3-d]azepin-7(6H)-yl)-4-(dimethylamino)but-2-en-1-one]
< 100 nM | < 100 nM | A (A: ≥100) | E (E: >1 and < 5) | Cc1ccc(Oc2ccc(Nc3ncnc4sc5c(c34)C(C)CN(C(=O)/C=C/CN(C)C)C5)cc2Cl)cn1 (centres unmarked) [Compound 171, (E)-1-(4-((3-Chloro-4-((6-methylpyridin-3-yl)oxy)phenyl)amino)-5-methyl-5,6-dihydropyrido[4′,3′:4,5]thieno[2,3-d]pyrimidin-7(8H)-yl)-4-(dimethylamino)but-2-en-1-one]

Continued, compound first:

Compound | EC50 [1] | EC50 [2] | Selectivity A431 EC50/BT474 EC50 [2] | Selectivity A431 EC50/HEKYVMA EC50 [2]
Cc1ccc(Oc2ccc(Nc3ncnc4sc5c(c34)CCN(C(=O)/C=C/CN3CCC[C@@H](CO)C3)C5)cc2C)cn1 [Compound 154] | < 100 nM | < 100 nM | C (C: ≥ 10 and < 20) | E (E: >1 and < 5)
Cc1ccc(Oc2ccc(Nc3ncnc4sc5c(c34)CCN(C(=O)/C=C/CN3CCC[C@H](CO)C3)C5)cc2C)cn1 [Compound 155] | < 100 nM | < 100 nM | B (B: ≥ 20 and < 100) | E (E: >1 and < 5)
Cc1cc(Nc2ncnc3sc4c(c23)CCN(C(=O)/C=C/CN(C)C)C4)ccc1Oc1ccc(N(C)C)nc1 [Compound 158, (E)-4-(dimethylamino)-1-(4-((4-((6-(dimethylamino)pyridin-3-yl)oxy)-3-methylphenyl)amino)-5,8-dihydropyrido[4′,3′:4,5]thieno[2,3-d]pyrimidin-7(6H)-yl)but-2-en-1-one] | < 100 nM | 100 to 1000 nM | B (B: ≥ 20 and < 100) | B (B: ≥ 20 and < 100)
COc1ccc(Oc2ccc(Nc3ncnc4sc5c(c34)CCN(C(=O)/C=C/CN(C)C(C)(C)C)C5)cc2C)cn1 [Compound 163] | < 100 nM | < 100 nM | D (D: ≥ 5 and < 10) | E (E: >1 and < 5)
COc1ccc(Oc2ccc(Nc3ncnc4sc5c(c34)CCN(C(=O)/C=C/CN3CCOCC3)C5)cc2C)cn1 [Compound 164] | < 100 nM | 100 to 1000 nM | C (C: ≥ 10 and < 20) | D (D: ≥ 5 and < 10)
Cc1cc(Nc2ncnc3sc4c(c23)CCN(C(=O)/C=C/CN(C)C)CC4)ccc1Oc1ccn2ncnc2c1 [Compound 168] | < 100 nM | 1000 to 10000 nM | A (A: ≥100) | B (B: ≥ 20 and < 100)
Cc1cc(Nc2ncnc3sc4c(c23)CCN(C(=O)/C=C/CN(C)C)CC4)ccc1Oc1ccn2ccnc2c1 [Compound 172, (E)-4-(Dimethylamino)-1-(4-((4-(imidazo[1,2-a]pyridin-7-yloxy)-3-methylphenyl)amino)-8,9-dihydro-5H-pyrimido[5′,4′:4,5]thieno[2,3-d]azepin-7(6H)-yl)but-2-en-1-one] | < 100 nM | 1000 to 10000 nM | B (B: ≥ 20 and < 100) | C (C: ≥ 10 and < 20)
COc1ccc(Oc2ccc(Nc3ncnc4sc5c(c34)CCN(C(=O)/C=C/CN(C)C)CC5)cc2C)cn1 [Compound 173, (E)-4-(Dimethylamino)-1-(4-((4-((6-methoxypyridin-3-yl)oxy)-3-methylphenyl)amino)-8,9-dihydro-5H-pyrimido[5′,4′:4,5]thieno[2,3-d]azepin-7(6H)-yl)but-2-en-1-one] | < 100 nM | 1000 to 10000 nM | B (B: ≥ 20 and < 100) | C (C: ≥ 10 and < 20)
Cc1ccc(Oc2ccc(Nc3ncnc4sc5c(c34)C(C)CN(C(=O)/C=C/CN3CCOCC3)C5)cc2C)cn1 (centres unmarked) [Compound 174, (E)-1-(5-Methyl-4-((3-methyl-4-((6-methylpyridin-3-yl)oxy)phenyl)amino)-5,6-dihydropyrido[4′,3′:4,5]thieno[2,3-d]pyrimidin-7(8H)-yl)-4-morpholinobut-2-en-1-one] | < 100 nM | 100 to 1000 nM | B (B: ≥ 20 and < 100) | C (C: ≥ 10 and < 20)
Cc1ccc(Oc2ccc(Nc3ncnc4sc5c(c34)C(C)CN(C(=O)/C=C/CN(C)C(C)(C)C)C5)cc2C)cn1 (centres unmarked) [Compound 175] | < 100 nM | < 100 nM | C (C: ≥ 10 and < 20) | E (E: >1 and < 5)
